Values after ≈ are worked out from the molar mass of the structure shown.
What was measured:
[1] = cells; format: cell-based; settings: Homo sapiens, NCI-H1781, 96 h
Description: Inhibition of HER2-G776delinsVC mutant (unknown origin) expressed in human H1781 cells assessed as reduction in HER2 induced cell viability after 96 hrs by CellTiter-Glo assay

[2] = Inhibition of HER2-A775_G776insYVMA mutant (unknown origin) expressed in mouse BaF3 cells assessed as reduction in HER2 induced cell viability after 96 hrs by CellTiter-Glo assay; format: cell-based; settings: BaF3, 96 h
[3] = target: Receptor tyrosine-protein kinase erbB-2 (Homo sapiens, UniProt P04626); experiment: Inhibition of C-terminal His6-tagged HER2 (703 to 1029 residues) (unknown origin) expressed in Sf9 insect cells using TK as substrate preincubated for 30 mins followed by substrate addition and measured after 60 mins in presence of XL665-labeled streptavidin by HTRF assay
Chain of Receptor tyrosine-protein kinase erbB-2 (P04626 whole entry, the tested form may be a part): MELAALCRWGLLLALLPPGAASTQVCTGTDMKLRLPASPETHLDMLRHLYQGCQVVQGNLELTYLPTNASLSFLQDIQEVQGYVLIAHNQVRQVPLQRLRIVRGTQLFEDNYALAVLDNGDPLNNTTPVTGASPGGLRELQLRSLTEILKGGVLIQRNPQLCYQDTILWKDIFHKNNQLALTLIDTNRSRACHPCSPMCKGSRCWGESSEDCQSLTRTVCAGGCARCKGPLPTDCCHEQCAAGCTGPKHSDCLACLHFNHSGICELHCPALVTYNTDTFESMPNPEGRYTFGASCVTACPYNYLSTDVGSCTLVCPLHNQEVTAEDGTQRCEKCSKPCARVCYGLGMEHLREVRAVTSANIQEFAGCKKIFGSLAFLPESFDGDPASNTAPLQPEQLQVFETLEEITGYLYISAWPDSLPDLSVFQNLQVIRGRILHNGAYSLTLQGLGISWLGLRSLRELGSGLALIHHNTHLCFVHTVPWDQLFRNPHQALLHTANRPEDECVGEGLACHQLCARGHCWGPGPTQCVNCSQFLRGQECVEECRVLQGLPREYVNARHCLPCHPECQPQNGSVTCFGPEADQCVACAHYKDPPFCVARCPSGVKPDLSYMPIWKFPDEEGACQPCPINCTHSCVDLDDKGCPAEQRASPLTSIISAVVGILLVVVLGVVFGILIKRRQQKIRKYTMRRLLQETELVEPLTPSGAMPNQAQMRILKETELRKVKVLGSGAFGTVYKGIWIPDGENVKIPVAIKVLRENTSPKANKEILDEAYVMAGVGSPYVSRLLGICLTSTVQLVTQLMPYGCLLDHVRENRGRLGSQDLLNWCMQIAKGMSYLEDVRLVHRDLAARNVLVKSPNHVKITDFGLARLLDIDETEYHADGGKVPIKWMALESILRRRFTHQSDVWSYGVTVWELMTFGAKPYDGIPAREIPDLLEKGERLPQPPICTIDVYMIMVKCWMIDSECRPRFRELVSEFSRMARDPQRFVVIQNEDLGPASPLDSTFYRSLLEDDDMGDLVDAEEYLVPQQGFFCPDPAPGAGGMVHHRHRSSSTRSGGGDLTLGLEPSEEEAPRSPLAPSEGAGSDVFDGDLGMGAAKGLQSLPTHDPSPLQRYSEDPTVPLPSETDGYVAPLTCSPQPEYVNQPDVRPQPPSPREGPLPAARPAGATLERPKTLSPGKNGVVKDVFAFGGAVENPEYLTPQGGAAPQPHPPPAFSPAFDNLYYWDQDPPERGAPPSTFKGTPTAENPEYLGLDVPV

[4] = Apparent permeability across apical side to basolateral side in human Caco-2 cells at 5 uM after 2 hrs by transwell assay; format: ADME, cell-based; settings: read-out: permeability
[5] = Ratio of apparent permeability across basolateral to apical over apical to basolateral side in human Caco2 cells at 5 uM after 2 hrs by transwell assay; format: ADME, cell-based; settings: Caco-2
[6] = Stability of compound in human plasma assessed as parent compound remaining at 5 uM measured for 1 hr by LC-MS analysis; format: ADME, cell-free; settings: read-out: Stabilty
[7] = Intrinsic clearance in human liver microsomes at 3 uM measured up to 50 mins by LC-MS analysis; format: ADME, Microsome; settings: read-out: CLH
[8] = Stability of compound in mouse plasma assessed as parent compound remaining at 5 uM measured for 1 hr by LC-MS analysis; format: ADME, cell-free; settings: for remaining at 1 h, 5 µM: read-out: Stabilty
[9] = Kinetic solubility of compound in HEPES buffer a pH 7.4 at 500 uM after 90 mins; format: physicochemical; settings: read-out: Kinetic_solubility
[10] = Intrinsic clearance in mouse liver microsomes at 3 uM measured up to 60 mins by LC-MS analysis; format: ADME, Microsome; settings: read-out: CLH
[11] = Apparent permeability across basolateral side to apical side in human Caco-2 cells at 5 uM after 2 hrs by transwell assay; format: ADME, cell-based; settings: read-out: permeability
[12] = Solubility of compound in aqueous buffer at pH 7.4 after 120 mins by turbidometric assay; format: physicochemical
[13] = Inhibition of C-terminal His6-tagged HER2-A775_G776insYVMA mutant (703 to 1029 residues) (unknown origin) expressed in Sf9 insect cells using TK as substrate measured up to 2 to 40 mins by fluorescence assay; design: species or system Homo sapiens

Compound | IC50 [1] [nM] | IC50 [2] [nM] | IC50 [3] [nM] | further results
C=CC(=O)Nc1cccc(-c2c[nH]c3ncnc(Nc4ccc5[nH]c(Cc6ccccc6)nc5c4)c23)c1 | 193 | 349 | 3.5 | 
C=CC(=O)Nc1cccc(-c2c[nH]c3ncnc(Nc4ccc(Cc5ccccc5)cc4)c23)c1 | > 3000 | 754 | 29 | 
C=CC(=O)Nc1cccc(-c2c(-c3ccc(N4CCN(C)CC4)cc3)[nH]c3ncnc(Nc4ccc(OCN5C(=O)c6ccccc6C5=O)cc4)c23)c1 | 264 | 411 | 12 | 
C=CC(=O)Nc1cccc(-c2c[nH]c3ncnc(Nc4ccc5c(ccn5Cc5ccccc5)c4)c23)c1 | 332 | 304 | 7.9 | 
C=CC(=O)N1CCC(Oc2cc3c(Nc4ccc(Cl)c(Cl)c4F)ncnc3cc2OC)CC1 [POZIOTINIB] | 105 | < 14 | 12 | Papp A→B at 2 h, 5 µM [4]: 21.1 ×10⁻⁶ cm/s; efflux ratio at 2 h, 5 µM [5]: 0.36; remaining at 1 h, 5 µM [6]: 86.9%; microsomal CLint at 3 µM [7]: 22 µL/min/mg; Stabilty ([8]; 1 h, 5 µM): 120.4%; solubility kinetic at 1.5 h, 500 µM [9]: 39.3 µM (≈ 19.3 µg/mL); microsomal CLint at 3 µM [10]: 35.4 µL/min/mg; Papp B→A at 2 h, 5 µM [11]: 7.5 ×10⁻⁶ cm/s
C=CC(=O)Nc1cccc(-c2c(-c3ccc(N4CCN(C)CC4)cc3)[nH]c3ncnc(OCC(C)C)c23)c1 | 2310 | 1120 | 26 | 
C=CC(=O)Nc1cc(-c2c[nH]c3ncnc(Nc4ccc(OCc5ccccn5)c(Cl)c4)c23)ccc1OC(C)COC (stereo not drawn) | 549 | 259 | 14 | 
C=CC(=O)Nc1cccc(-c2c(-c3ccc(N4CCN(C)CC4)cc3)[nH]c3ncnc(Nc4ccc(CN5C(=O)c6ccccc6C5=O)cc4)c23)c1 | 490 | 638 | 55 | 
CCOc1cc2ncc(C#N)c(Nc3ccc(OCc4ccccn4)c(Cl)c3)c2cc1NC(=O)/C=C/CN(C)C [NERATINIB] | 148 | < 14 |  | Papp A→B at 2 h, 5 µM [4]: 0.09 ×10⁻⁶ cm/s; solubility kinetic at 2 h [12]: > 10 µM; remaining at 1 h, 5 µM [6]: 80.7%; microsomal CLint at 3 µM [7]: 42 µL/min/mg; remaining at 1 h, 5 µM [8]: 97.4%; solubility kinetic at 1.5 h, 500 µM [9]: 1.2 µM (≈ 0.668 µg/mL); microsomal CLint at 3 µM [10]: 126 µL/min/mg; Papp B→A at 2 h, 5 µM [11]: 0.4 ×10⁻⁶ cm/s; Ki [13]: 6.3 nM
C=CC(=O)Nc1cc(-c2c[nH]c3ncnc(Nc4ccc(OCc5ccccn5)c(Cl)c4)c23)ccc1OCCCO | 271 | 41 | 9.3 | 
CC(C)(O)CC(=O)NCCn1ccc2ncnc(Nc3ccc(Oc4cccc(C(F)(F)F)c4)c(Cl)c3)c21 [TAK-285] | 3980 | 3220 |  | 
C=CC(=O)Nc1cccc(-c2c(-c3ccc(N4CCN(C)CC4)cc3)[nH]c3ncnc(OC)c23)c1 | 357 | 910 | 50 | 
C=CC(=O)Nc1cccc(-c2c[nH]c3ncnc(Nc4ccc(OCc5cccc(F)c5)c(Cl)c4)c23)c1 | 305 | 135 | 14 | 
C=CC(=O)Nc1cccc(-c2c(-c3ccc(N4CCN(C)CC4)cc3)[nH]c3ncnc(Nc4ccc(OC(c5ccccc5)c5ccccc5)cc4)c23)c1 | 2630 | > 3000 | 4.5 | 
CN(C)C/C=C/C(=O)Nc1cc2c(Nc3ccc(F)c(Cl)c3)ncnc2cc1O[C@H]1CCOC1 [AFATINIB] |  |  |  | Papp A→B at 2 h, 5 µM [4]: 2.38 ×10⁻⁶ cm/s; remaining at 1 h, 5 µM [6]: 96.5%; microsomal CLint at 3 µM [7]: 1.4 µL/min/mg; remaining at 1 h, 5 µM [8]: 101%; microsomal CLint at 3 µM [10]: 9.4 µL/min/mg; Papp B→A at 2 h, 5 µM [11]: 55.4 ×10⁻⁶ cm/s
C=CC(=O)Nc1cccc(-c2c[nH]c3ncnc(Nc4ccc(Oc5ccccc5)cc4)c23)c1 | > 3000 | > 3000 | 13 | 
C=CC(=O)Nc1cc(-c2c[nH]c3ncnc(Nc4ccc(CN5C(=O)c6ccccc6C5=O)cc4)c23)ccc1OCCN(C)C | 1200 | 621 | 23 | 
C=CC(=O)Nc1cccc(-c2c(-c3ccc(N4CCN(C)CC4)cc3)[nH]c3ncn(C)c(=O)c23)c1 | 1230 | 3300 | 146 | 
C=CC(=O)Nc1cc(-c2c[nH]c3ncnc(Nc4ccc(OCc5ccccn5)c(Cl)c4)c23)ccc1OCCO | 201 | 84 | 1.9 | 

Compound | IC50 [1] [nM] | IC50 [2] [nM] | IC50 [3] [nM] | further results
C=CC(=O)Nc1cccc(-c2c(-c3ccc(N4CCN(C)CC4)cc3)[nH]c3ncnc(Nc4ccc(OCc5ccccn5)c(Cl)c4)c23)c1 | 252 | 285 | 14 | 
C=CC(=O)Nc1cccc(-c2c(-c3ccc(N4CCN(C)CC4)cc3)[nH]c3ncnc(Nc4ccc(O)cc4)c23)c1 | 165 | 431 | 3.9 | 
C=CC(=O)Nc1cccc(-c2c(-c3ccc(N4CCN(C)CC4)cc3)[nH]c3ncnc(OCC)c23)c1 | 417 | 327 | 14 | 
CS(=O)(=O)CCNCc1ccc(-c2ccc3ncnc(Nc4ccc(OCc5cccc(F)c5)c(Cl)c4)c3c2)o1 [LAPATINIB] | 3940 | 2760 |  | Papp A→B at 2 h, 5 µM [4]: 0.7 ×10⁻⁶ cm/s; solubility kinetic at 2 h [12]: 3 µM (≈ 1.74 µg/mL); remaining at 1 h, 5 µM [6]: 99.7%; microsomal CLint at 3 µM [7]: 16.7 µL/min/mg; remaining at 1 h, 5 µM [8]: 95.9%; solubility kinetic at 1.5 h, 500 µM [9]: 4.1 µM (≈ 2.38 µg/mL); microsomal CLint at 3 µM [10]: 73.7 µL/min/mg; Papp B→A at 2 h, 5 µM [11]: 0.2 ×10⁻⁶ cm/s
C=CC(=O)Nc1cc(-c2c[nH]c3ncnc(Nc4ccc(CN5C(=O)c6ccccc6C5=O)cc4)c23)ccc1OCCO | 1610 | 675 | 15 | 
C=CC(=O)Nc1cccc(-c2c[nH]c3ncnc(Nc4ccc(OCN5C(=O)c6ccccc6C5=O)cc4)c23)c1 | 383 | 562 | 4.5 | 
COc1cc2ncnc(Nc3ccc(F)c(Cl)c3)c2cc1OCCCN1CCOCC1 [GEFITINIB] |  | 2880 |  | 
C=CC(=O)Nc1cccc(-c2c[nH]c3ncnc(Nc4ccc5c(cnn5Cc5ccccc5)c4)c23)c1 | 126 | 53 | 12 | 
C=CC(=O)Nc1cccc(-c2c(-c3ccc(N4CCN(C)CC4)cc3)[nH]c3ncn(CC(C)C)c(=O)c23)c1 | 988 | 2420 | 321 | 
C=CC(=O)Nc1cccc(-c2c(-c3ccc(N4CCN(C)CC4)cc3)[nH]c3ncnc(OC(C)C)c23)c1 | 1180 | 1440 | 21 | 
C=CC(=O)Nc1cccc(-c2c[nH]c3ncnc(Nc4ccc(OC(c5ccccc5)c5ccccc5)cc4)c23)c1 | 6390 | 497 | 26 | 
C=CC(=O)Nc1cccc(-c2c(-c3ccc(N4CCN(C)CC4)cc3)[nH]c3ncnc(Nc4ccc(OCc5cccc(F)c5)c(Cl)c4)c23)c1 | > 30000 | 2220 | 95 | 
C=CC(=O)Nc1cccc(-c2c(-c3ccc(N4CCN(C)CC4)cc3)[nH]c3ncn(CC)c(=O)c23)c1 | 2340 | 2810 | 84 | 
C=CC(=O)Nc1cccc(-c2c(-c3ccc(N4CCN(C)CC4)cc3)[nH]c3ncnc(Nc4ccc(OC(=O)C(c5ccccc5)N5Cc6ccccc6C5=O)cc4)c23)c1 (stereo not drawn) | 334 | 390 | 13 | 
C=CC(=O)Nc1cccc(-c2c(-c3ccc(N4CCN(C)CC4)cc3)[nH]c3ncn(C(C)C)c(=O)c23)c1 | 2050 | 3600 | 592 | 
C=CC(=O)Nc1cc(-c2c[nH]c3ncnc(Nc4ccc5[nH]c(Cc6ccccc6)nc5c4)c23)ccc1OCCO | > 3000 | > 3000 | 188 | 
C=CC(=O)Nc1cc(Nc2nccc(-c3cn(C)c4ccccc34)n2)c(OC)cc1N(C)CCN(C)C [OSIMERTINIB] | 808 | 1390 |  | 
C=CC(=O)Nc1cccc(-c2c(-c3ccc(N4CCN(C)CC4)cc3)[nH]c3ncnc(Nc4ccc(NC(=O)C(c5ccccc5)N5Cc6ccccc6C5=O)cc4)c23)c1 (stereo not drawn) | 699 | 2680 | 43 | 

Reference: ChEMBL document CHEMBL4665812, “Targeting Her2-insYVMA with Covalent Inhibitors-A Focused Compound Screening and Structure-Based Design Approach” (J Med Chem, 2020)
